Several values for one entry are separate records, joined by “and”; a condition that tells them apart may be missing. Equal values may be shown once. Inconclusive results and toxic doses are left out. Rule as the data show it: active = T/C of 150% or more; inactive = T/C below 125%.
Test system: L1210 leukemia ip in BDF1 mice, survival T/C
Assay: NCI In Vivo Anticancer Drug Screen. Data for tumor model L1210 Leukemia (intraperitoneal) in B6D2F1 (BDF1) mice
Conditions: endpoint: mean survival time, higher = longer survival
Outline: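 Survival endpoint. Drug-treated group vs vehicle group, expressed as T divided by C. Tumor passaged by transplantation.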

[1] = dose: 50.0 mg/kg/injection, schedule: Q01DX001 (ip), vehicle: saline
[2] = dose: 100.0 mg/kg/injection, schedule: Q01DX001 (ip), vehicle: saline
[3] = dose: 100.0 mg/kg/injection, schedule: Q01DX001 (ip), vehicle: carboxymethylcellulose (CMC)
[4] = dose: 200.0 mg/kg/injection, schedule: Q01DX001 (ip), vehicle: carboxymethylcellulose (CMC)
[5] = dose: 400.0 mg/kg/injection, schedule: Q01DX001 (ip), vehicle: carboxymethylcellulose (CMC)
[6] = dose: 75.0 mg/kg/injection, schedule: Q01DX001 (ip), vehicle: carboxymethylcellulose (CMC)
[7] = dose: 100.0 mg/kg/injection, schedule: Q01DX009 (ip), vehicle: Klucel (hydroxypropylcellulose) (HPC)
[8] = dose: 200.0 mg/kg/injection, schedule: Q01DX009 (ip), vehicle: Klucel (hydroxypropylcellulose) (HPC)
[9] = dose: 400.0 mg/kg/injection, schedule: Q01DX009 (ip), vehicle: Klucel (hydroxypropylcellulose) (HPC)
[10] = dose: 200.0 mg/kg/injection, schedule: Q01DX001 (ip), vehicle: saline
[11] = dose: 400.0 mg/kg/injection, schedule: Q01DX001 (ip), vehicle: saline
[12] = dose: 100.0 mg/kg/injection, schedule: Q04DX003 (ip), vehicle: Klucel (hydroxypropylcellulose) (HPC)
[13] = dose: 200.0 mg/kg/injection, schedule: Q04DX003 (ip), vehicle: Klucel (hydroxypropylcellulose) (HPC)
[14] = dose: 100.0 mg/kg/injection, schedule: Q04DX002 (ip), vehicle: Klucel (hydroxypropylcellulose) (HPC)
[15] = dose: 200.0 mg/kg/injection, schedule: Q04DX002 (ip), vehicle: Klucel (hydroxypropylcellulose) (HPC)
[16] = dose: 400.0 mg/kg/injection, schedule: Q04DX002 (ip), vehicle: Klucel (hydroxypropylcellulose) (HPC)
[17] = dose: 400.0 mg/kg/injection, schedule: Q04DX003 (ip), vehicle: Klucel (hydroxypropylcellulose) (HPC)
[18] = dose: 100.0 mg/kg/injection, schedule: Q04DX003 (ip), vehicle: saline with Tween-80
[19] = dose: 200.0 mg/kg/injection, schedule: Q04DX003 (ip), vehicle: saline with Tween-80
[20] = dose: 400.0 mg/kg/injection, schedule: Q04DX003 (ip), vehicle: saline with Tween-80
[21] = dose: 100.0 mg/kg/injection, schedule: Q01DX001 (ip), vehicle: Klucel (hydroxypropylcellulose) (HPC)
[22] = dose: 200.0 mg/kg/injection, schedule: Q01DX001 (ip), vehicle: Klucel (hydroxypropylcellulose) (HPC)
[23] = dose: 400.0 mg/kg/injection, schedule: Q01DX001 (ip), vehicle: Klucel (hydroxypropylcellulose) (HPC)

Measured: T/C

CN(C)C=C1C(=O)NC(=O)NC1=O
inactive: dose: 25.0 mg/kg/injection, schedule: Q01DX001 (ip), vehicle: saline 96 % of control | dose: 25.0 mg/kg/injection, schedule: Q01DX009 (ip), vehicle: saline 95 % of control | [1] 103 % of control | dose: 50.0 mg/kg/injection, schedule: Q01DX009 (ip), vehicle: saline 106 % of control | [2] 102 % of control | dose: 100.0 mg/kg/injection, schedule: Q01DX009 (ip), vehicle: saline 106 % of control

CCCC[n+]1cnc(N)c2[nH]cnc21
inactive: dose: 50.0 mg/kg/injection, schedule: Q04DX003 (ip), vehicle: saline 93 % of control | dose: 100.0 mg/kg/injection, schedule: Q04DX003 (ip), vehicle: saline 91 % of control | dose: 200.0 mg/kg/injection, schedule: Q04DX003 (ip), vehicle: saline 100 % of control

O=C1c2ccccc2-c2oc(=O)c3ccccc3c21
inactive: dose: 50.0 mg/kg/injection, schedule: Q01DX001 (ip), vehicle: carboxymethylcellulose (CMC) 96 % of control | [3] 96 % of control | [4] 94 % of control | [5] 96 % of control

O=[N+]([O-])c1ccn(Cc2ccccc2)c1
inactive: [3] 97 % of control | [4] 88 % of control | [5] 92 % of control

ClCCNCc1ccc(Nc2ccnc3cc(Cl)ccc23)cc1
inactive: [6] 103 % of control

Cc1ccc(NC(c2cc(Br)ccc2O)P(=O)(c2ccccc2)c2ccccc2)c([N+](=O)[O-])c1 (centres undefined)
inactive: [7] 93 % of control | [8] 96 % of control | [9] 96 % of control

O=C1NC(=O)C(c2ccc(F)cc2)N1 (centres undefined)
inactive: [1] 100 % of control | [2] 100 % of control | [10] 97 % of control | [11] 97 % of control

CC(O)(c1ccccc1)C(C)(O)c1ccccc1 (centres undefined)
inactive: dose: 50.0 mg/kg/injection, schedule: Q04DX002 (ip), vehicle: saline with Tween-80 114 % of control | dose: 100.0 mg/kg/injection, schedule: Q04DX002 (ip), vehicle: saline with Tween-80 96 % of control | dose: 200.0 mg/kg/injection, schedule: Q04DX002 (ip), vehicle: saline with Tween-80 93 % of control

COc1ccc2c3c1OC1CC(O)C=CC31CCN(C)C2 (centres undefined)
inactive: dose: 2.5 mg/kg/injection, schedule: Q01DX009 (ip), vehicle: saline 102 % of control | dose: 2.9 mg/kg/injection, schedule: Q01DX Z (ip), vehicle: saline 105 % of control | dose: 5.0 mg/kg/injection, schedule: Q01DX009 (ip), vehicle: saline 107 % of control

C=CCNC(=S)NCc1ccc(C)cc1
inactive: [7] 96 % of control | [8] 93 % of control

OC(c1ccccc1)(c1ccccc1)C1C(Cc2ccccc2)C1Cc1ccccc1 (centres undefined)
inactive: dose: 100.0 mg/kg/injection, schedule: Q01DX001 (ip), vehicle: steriod suspending solution 110 % of control | dose: 200.0 mg/kg/injection, schedule: Q01DX001 (ip), vehicle: steriod suspending solution 112 % of control | dose: 400.0 mg/kg/injection, schedule: Q01DX001 (ip), vehicle: steriod suspending solution 104 % of control

Oc1cccc2ccc(Cl)nc12
inactive: [6] 97 % of control | dose: 150.0 mg/kg/injection, schedule: Q01DX001 (ip), vehicle: carboxymethylcellulose (CMC) 101 % of control | dose: 300.0 mg/kg/injection, schedule: Q01DX001 (ip), vehicle: carboxymethylcellulose (CMC) 97 % of control

CCN(CC)N=Nc1ccccc1-c1nc(N)nc(N)n1
inactive: [12] 95 % of control | [13] 108 % of control

Cc1c(Cl)cccc1NC(=O)C1CC(Br)C(Br)CC1C(=O)O (centres undefined)
inactive: [14] 95 % of control | [15] 103 % of control | [16] 95 % of control

CCOc1ccc(/C=C2\N=C(c3ccccc3)OC2=O)cc1
inactive: [7] 98 % of control | [12] 100 % of control | [8] 88 % of control | [13] 100 % of control | [9] 93 % of control | [17] 98 % of control

[Cl][Fe]([Cl])([Cl])[Cl].c1ccc(-c2cc(-c3ccccc3)[o+]c(-c3ccccc3)c2)cc1
inactive: dose: 25.0 mg/kg/injection, schedule: Q01DX009 (ip), vehicle: saline with Tween-80 87 % of control | dose: 50.0 mg/kg/injection, schedule: Q01DX009 (ip), vehicle: saline with Tween-80 88 % of control | dose: 100.0 mg/kg/injection, schedule: Q01DX009 (ip), vehicle: saline with Tween-80 90 % of control

CC(C)(C)NC/C(=C\c1ccccc1)C(=O)c1ccccc1
inactive: dose: 5.0 mg/kg/injection, schedule: Q01DX001 (ip), vehicle: saline 98 % of control | dose: 10.0 mg/kg/injection, schedule: Q01DX001 (ip), vehicle: saline 101 % of control | dose: 20.0 mg/kg/injection, schedule: Q01DX001 (ip), vehicle: saline 98 % of control | dose: 25.0 mg/kg/injection, schedule: Q01DX009 (ip), vehicle: Klucel (hydroxypropylcellulose) (HPC) 100 % of control | dose: 40.0 mg/kg/injection, schedule: Q01DX001 (ip), vehicle: saline 93 % of control | dose: 50.0 mg/kg/injection, schedule: Q01DX009 (ip), vehicle: Klucel (hydroxypropylcellulose) (HPC) 98 % of control | dose: 80.0 mg/kg/injection, schedule: Q01DX001 (ip), vehicle: saline 95 % of control | [7] 95 % of control | [12] 94 % of control | [18] 112 % of control | [13] 91 % of control | [17] 96 % of control

C=CCNc1nnnn1CC=C
inactive: [18] 102 % of control | [19] 102 % of control | [20] 96 % of control

CC(=O)N1CC(=O)NC1=S
inactive: [21] 115 % of control | [22] 107 % of control | [23] 95 % of control

O=C(COc1ccccc1)Nc1cccnc1
inactive: [21] 94 % of control | [22] 102 % of control

CC(=O)Oc1ccccc1/C=C\C=O
inactive: [2] 103 % of control | [10] 106 % of control | [11] 105 % of control

CCSCc1cnc(N)nc1-c1ccccc1
inactive: [18] 97 % of control | [19] 94 % of control | [20] 86 % of control

Cc1cc2c(C)c3ccccc3c(C)c2c2ccccc12
inactive: dose: 50.0 mg/kg/injection, schedule: Q04DX003 (ip), vehicle: Klucel (hydroxypropylcellulose) (HPC) 98 % of control | [12] 95 % of control | [13] 104 % of control

C1CC[C@@H]2NCCC[C@H]2C1
inactive: [3] 103 % of control | [4] 92 % of control

O=C(O)/C(=C\c1ccc([N+](=O)[O-])cc1)c1cccc(Cl)c1
inactive: [21] 108 % of control | [7] 96 % of control and 97 % of control | [14] 94 % of control and 89 % of control | [12] 106 % of control | [22] 103 % of control | [8] 97 % of control and 102 % of control | [15] 101 % of control and 102 % of control | [13] 97 % of control | [23] 98 % of control | [16] 99 % of control | [17] 99 % of control

— PubChem BioAssay AID248 (DTP/NCI, 2004)
